Reference: patent US20120077732A1, “CYCLIC PEPTIDES AND USES THEREOF” (SYDNEY WEST AREA HEALTH SERVICE, priority 2008, published 2012)

What was measured:
2B4.11 hybridoma = experiment: Antigen presentation assay (IL-2 produced in response to antigen); assay type: cell-based; settings: for IL2 %: 50 μM, relative to DMSO control (100%); for IL-2 production, % of the solvent only control value: 0.5% DMSO, ±SD
2B4.11 cells [1] = experiment: T-cell activation with 2C11-145 antibody (CD3 crosslinking), IL-2 production; assay type: cell-based; settings: CD3 crosslinking with 2C11-145; 50 μM; relative to DMSO control; ±SD
Description: To analyse the mode of action of C1, T-cells were activated using 2C11-145 and H57-597 antibodies. The H57-597 antibody is directed against the TCRβ chain, and when administered at sub-optimal doses in conjunction with accessory cells (LK35.2), is capable of activating T cells. […] C1 was added to give a final reaction volume of 250 μL at 50 μM and 0.5% DMSO. […] T cells were also activated using the 2C11-145 antibody to crosslink the CD3 chains of the TCR, thereby bypassing the antigen recognition sub-units of the TCRα/β.

2B4.11 cells [2] = assay type: cell-based; settings: 50 μM
[3] = Surface plasmon resonance binding to DMPC liposomes; settings: SPR
Description: (§1) Model membranes composed of zwitterionic and anionic phospholipids were prepared as previously described (Bender et al., 2004). Briefly, DMPC and DMPG were dissolved in dry chloroform and chloroform/methanol (2:1) respectively to give 10 mg/ml solutions. […] The solution was sonicated in an ultrasonic bath for 20 min. Eight cycles of freeze/thawing was followed by extrusion through polycarbonate filters, first 100 nm (21 times) then 50 nm pore diameter (21 times), using a Lipofast apparatus (Avestin, Ottawa, Canada) and SUVs were used immediately. SPR was carried out on a BIAcore 2000 instrument using Pioneer Sensor Chip L1 and HEPES (HBS-N, Biacore, Upssala, Sweden) as running buffer. The chip surface was cleaned with 40 mM octyl glycoside (30 μl, 10 μl/min) followed liposomes (SUV) (100 μl, 5 μl/min). 10 mM NaOH (40 μl, 10 μl/min) removed any multilamellar vesicles from the surface before injecting the lipopeptide solutions (100 μl, 5 μl/min). The dissociation stage was 1200 sec. […] All SPR experiments were run at 25° C. and all analyses were performed using the BIAevaluation software (Biacore, Uppsala, Sweden). Lipopeptide binding was expressed as the difference in signal between points before sample injection and after dissociation.

[4] = Surface plasmon resonance binding to DMPG liposomes; settings: SPR, L1 sensor chip, 50 μM, 25° C.
Description: as §1

trypsin = assay type: in vitro ADME
Description: The effect of trypsin on C1 and CP was studied by incubating each peptide (1 μg/μl) in methanol and ammonium bicarbonate (0.1M) with 125 ng/μl of trypsin at pH 8 and 37° C. The effect of trypsin after incubation with CP and C1 was followed by mass spectrometry. […]

[5] = assay type: physicochemical
Description: pH stability was also investigated. C1 (2 μg/μl) was incubated at 30° C. for three days at pH 3, 7 and 10. Samples were taken after each day and analysed by mass spectrometry.

E. coli = experiment: Standard disk susceptibility testing (NCCLS), E. coli; assay type: cell-based
Description: (§2) The synthetic C1 peptide and its analogues were tested using Standard disk susceptibility testing by National Committee for […] Laboratory Standards (NCCLS) against, S. aureus, E. coli and S. pneumoniae. […]

S. pneumoniae = experiment: Standard disk susceptibility testing (NCCLS), S. pneumoniae; assay type: cell-based
Description: as §2

[6] = tested on: allergic mice (OVA model); assay type: in vivo; settings: 200 μg subcutaneous; compared to historical OVA/OVA mice
Description: The effect on the inflammatory response of the 200 μg dose and subcutaneous route of administration of cyclic C1 peptide determined in Example 8 was tested with the OVA (ovalbumin) model (Temelkovski, et al. (1998); Foster, et al. (2000); Asquith et al (2008)) according to the following study design. At the endpoint mice were euthanased and BALF was obtained by cannulating the trachea and flushing the airways with two 0.8 ml volumes of Hank's Balanced Salt Solution (HBSS). Recovered cells were treated with erythrocyte lysis buffer, cytospins prepared and stained with May-Grunwald Giemsa and differential leukocyte counts performed based on morphological criteria (min 200 cells counted/slide). Statistical analysis was performed using a student's unpaired t-test. Results were compared to historical data.

allergic mice (OVA/OVA) [7] = experiment: Allergic airways disease (OVA) model: inflammatory cells in BALF; assay type: in vivo; set-up: key to Airway lymphocytes / Airway eosinophils / Airway macrophages / Airway inflammatory cells / Airway neutrophils: nc: no change; ↑: increase; ↓: decrease
allergic mice (OVA/OVA) [8] = experiment: Allergic airways disease (OVA) model: local and systemic OVA-specific cytokine production; assay type: in vivo; set-up: key to Spleen OVA-stimulated IL-5 / Spleen OVA-stimulated IL-13 / LN OVA-stimulated IL-5 / LNOVA stimulated IL-13: nc: no change; ↑: increase; ↓: decrease
allergic mice (OVA/OVA) [9] = experiment: Allergic airways disease (OVA) model: airways hyperreactivity to methacholine; assay type: in vivo; set-up: key to Airway Resistance / Airway Compliance: nc: no change; ↑: increase; ↓: decrease
2B4 cells = experiment: T-cell activation with PMA and ionomycin, IL-2 production; settings: PMA 40 ng/mL + ionomycin 5 μg/mL; 50 μM; ±SD
Description: Further, T-cells were activated using PMA and ionomycin stimulation. The method employed to activate T cells utilized the protein kinase C activating PMA in combination with the calcium ionophore, ionomycin. In combination, PMA/ionomycin effectively activate T cells downstream from the TCR. Phorbol 12-myristate 13-acetate (PMA) (40 ng/mL) and ionomycin (5 μg/mL) were added to 2B4 cells (5×10^4) and incubated with each CP-conjugate at 50 μM in 0.5% DMSO in 96-well, round bottom microtiter plates for 24 h at 37° C. with 5% CO2 in a total volume of 250 μL. Supernatants were then collected and analysed for IL-2 production. All CP-conjugates were tested simultaneously in triplicate wells, and each experiment was performed on three separate occasions.

[10] = 200 μg s.c. during challenge, allergic mice
[11] = 200 μg/100 μl s.c. during OVA challenge, compared to OVA/OVA alone

## CC(C)C[C@@H]1NC(=O)[C@@H](CC(C)C)NC(=O)[C@H](CCCNC(=N)N)NC(=O)[C@@H](CC(C)C)NC(=O)CNC(=O)[C@@H](C(C)C)NC(=O)[C@H](CCCCN)NC(=O)[C@@H](CC(C)C)NC(=O)[C@H](CC(C)C)NC(=O)[C@@H](CC(C)C)NC1=O [C1, LDRLDLLDLLDKVDG]
2B4.11 hybridoma; average, Tables 1-3
  % Ave IL2 Production: 17%
2B4.11 hybridoma; fifth IL2 column (individual experiment in triplicate)
  IL2 %: 15.6%
2B4.11 hybridoma; fourth IL2 column (individual experiment in triplicate)
  IL2 %: 18.9%
2B4.11 hybridoma; peptide 25 μM
  IL-2 production, % of the solvent only control value: 59.69%±23.54
2B4.11 hybridoma; peptide 50 μM
  IL-2 production, % of the solvent only control value: 7.73%±4.97
2B4.11 cells [1]
  % IL-2 production: 50.00%+/−15.79
2B4.11 cells [2]
  IL-2 production: 71.42%+/−14.275D
[3]
  binding affinity to DMPC model membrane relative to CP: approximately 10 fold
[3]; L1 sensor chip, 50 μM, 25° C.
  binding to DMPC (zwitterionic) liposomes: bound much stronger
[3]; model membranes
  binding relative to all the other analogues examined (with the exception of C2): > 10 fold
[4]
  binding to DMPG (anionic) liposomes: bound much stronger
trypsin
  stability without trypsin, 3 hours (Mass spectroscopy-MS): No degradation product
  stability without trypsin, 24 hours (MS): No degradation product
[5]
  pH range over which stable: 1-11 pH
E. coli; peptide 10 μg/ml
  antimicrobial activity, E. coli: −ve
E. coli; peptide 100 μg/ml
  antimicrobial activity, E. coli: −ve
E. coli; peptide 1000 μg/ml
  antimicrobial activity, E. coli: −ve
S. pneumoniae; peptide 10 μg/ml
  antimicrobial activity, S. pneumoniae: −ve
S. pneumoniae; peptide 100 μg/ml
  antimicrobial activity, S. pneumoniae: −ve
S. pneumoniae; peptide 1000 μg/ml
  antimicrobial activity, S. pneumoniae: −ve
[6]
  eosinophils in BALF: decrease
  macrophages in BALF: significant reduction
  total inflammatory cells in BALF: reduction
Allergic mice (OVA/OVA) [7]; [10]
  eosinophils in BALF: decrease
  total inflammatory cell counts in bronchoalveolar lavage fluid (BALF): significantly decreased
Allergic mice (OVA/OVA) [7]; [11]
  Airway eosinophils: ↓
  Airway inflammatory cells: ↓
  Airway lymphocytes: nc
  Airway macrophages: nc
  Airway neutrophils: nc
Allergic mice (OVA/OVA) [8]; [10]
  locally produced (peribronchial lymph node derived) IL-5: significant decrease
  locally produced (peribronchial lymph node derived) IL-13: significant decrease
  systemic (spleen derived) IL-5: significant decrease
  systemic (spleen derived) IL-13: significant decrease
Allergic mice (OVA/OVA) [8]; [11]
  LN OVA-stimulated IL-5: ↓
  LNOVA stimulated IL-13: ↓
  Spleen OVA-stimulated IL-5: ↓
  Spleen OVA-stimulated IL-13: ↓
Allergic mice (OVA/OVA) [9]; [10]
  airway resistance in response to methacholine challenge: no significant effect
  dynamic compliance in response to methacholine challenge: no significant effect
Allergic mice (OVA/OVA) [9]; [11]
  Airway Compliance: ↑
  Airway Resistance: nc
2B4 cells
  IL-2 production relative to the DMSO control: 62.83%+/−17.60
